Experimental data: paper PMC12655682, “Screening-Identified Oxazole-4-Carboxamide KB-2777 Exhibits In Vitro Anti-Coronavirus Activity” (Pharmaceutics, 2025)
Where two headings read alike, the source gives them in different places.

Experiments:
[1] = Cytotoxicity (EZ-Cytox WST) in LLC-MK2 cells; type: cell-based; settings: rhesus monkey, 72 h exposure
Procedure: Cells were seeded at 2 × 10^4 cells per well in 96-well plates and, after overnight attachment, exposed to test compounds for 72 h in maintenance medium. The final DMSO concentration was ≤0.1% (v/v) for all conditions, including vehicle controls. Cell viability was quantified using EZ-Cytox WST reagent (DoGenBio, Seoul, Republic of Korea) according to the manufacturer’s instructions; absorbance was read at 450 nm on a SpectraMax i3x microplate reader (Molecular Devices, San Jose, CA, USA). Viability for each well was normalized to the mean of vehicle-treated (mock) controls on the same plate and expressed as percent viability. Each condition included technical replicates (n = 3) per experiment. Concentration–response data from ≥3 independent experiments were fit to a four-parameter logistic (4PL) model in GraphPad Prism 10.1.2 (GraphPad Software, San Diego, CA, USA) (log10-transformed concentrations; bottom and top unconstrained).

HCoV-NL63 [2] = experiment: Primary antiviral screening (virus inhibition) in HCoV-NL63-infected LLC-MK2 cells; type: cell-based, Human coronavirus NL63; settings: for SI (=CC50/EC50): HCoV-NL63/LLC-MK2; for antiviral effect: HCoV-NL63/LLC-MK2, up to 25 µM
Procedure: For antiviral activity, cells in 96-well plates were infected and treated with test compounds as indicated and incubated for 48–72 h. Cell viability was quantified by WST (EZ-Cytox) at 450 nm on the same reader. Cytoprotective effect was calculated by normalizing to infected DMSO controls and converting to percent protection: % Protection = ((V_drug + virus − V_virus-only)/(V_mock − V_virus-only)) × 100.
We screened 11 oxazole-4-carboxamide derivatives (Figure 1) against HCoV-NL63 in LLC-MK2 cells and quantified antiviral activity and cytotoxicity (Figure 2). Several derivatives inhibited NL63 with distinct selectivity profiles. […] Visible crystals or precipitates formed at ≥50 µM without loss of viability or morphological change; therefore, downstream assays were performed at ≤25 µM.

HCoV-NL63 [3] = experiment: Combination (concentration matrix, ZIP synergy) HCoV-NL63/LLC-MK2; type: cell-based, Human coronavirus NL63; settings: HCoV-NL63/LLC-MK2, alone
Procedure: Concentration matrices were generated within the non-cytotoxic range for KB-2777 + nirmatrelvir (HCoV-NL63/LLC-MK2) and KB-2777 + GS-441524 (HCoV-OC43/Vero E6). Antiviral activity was measured at 48 h post-infection. Interaction surfaces and ZIP synergy scores were computed using SynergyFinder (v3) with default normalization (virus + DMSO control = 0% inhibition). Heatmaps and δ-surfaces were exported directly from SynergyFinder.

[4] = Human coronavirus NL63, LLC-MK2, HCoV-NL63/LLC-MK2, primary screen, read-out: EC50
[5] = HCoV-NL63/LLC-MK2, primary screen, read-out: EC50
[6] = Human coronavirus NL63, LLC-MK2, HCoV-NL63/LLC-MK2, primary screen

SMILES	CC50 at 72 h [1]	SI (=CC50/EC50) (HCoV-NL63 [2])	EC50 (HCoV-NL63 [2]; [4])	EC50 (HCoV-NL63 [2]; [5])	EC50 (HCoV-NL63 [2]; [6])	antiviral effect (HCoV-NL63 [2])	antiviral activity of the single agent in the combination assay (HCoV-NL63 [3])
COC(=O)[C@H](C)NC(=O)c1nc(-c2ccc(C(F)(F)F)cc2)oc1-c1ccc(SC)cc1 [KB-2738]	21.8 µM	2.84	7.7 µM				
COC(=O)[C@H](C)NC(=O)c1nc(-c2ccc(C(F)(F)F)cc2)oc1-c1cccc(SC)c1 [KB-2742]	< 25 µM	<5.40	4.63 µM				
COC(=O)[C@H](C)NC(=O)c1nc(-c2ccc(C(F)(F)F)cc2)oc1-c1cccc(OC)c1 [KB-2767]	30.8 µM	3.33	9.26 µM				
COC(=O)[C@H](CC(C)C)NC(=O)c1nc(-c2ccc(C(F)(F)F)cc2)oc1-c1cccc(SC)c1 [KB-2768]	34.1 µM	5.12	6.66 µM				
CSc1cccc(-c2oc(-c3ccc(C(F)(F)F)cc3)nc2C(=O)N[C@@H](C)C(N)=O)c1 [KB-2769]	< 6.25 µM	<2.67	2.34 µM				
CSc1cccc(-c2oc(-c3ccc(C(F)(F)F)cc3)nc2C(=O)N[C@@H](CC(C)C)C(N)=O)c1 [KB-2771]	< 25 µM			4.27 µM	4 to 5 µM		
COC(=O)C(CC1CCNC1=O)NC(=O)c1nc(-c2ccc(C(F)(F)F)cc2)oc1-c1cccc(SC)c1 (stereo not shown) [KB-2772]	> 50 µM					no detectable antiviral effect	
COC(=O)C(CC1CCNC1=O)NC(=O)c1nc(-c2ccc(C(F)(F)F)cc2)oc1-c1cccc(OC)c1 (stereo not shown) [KB-2773]	< 25 µM					no detectable antiviral effect	
COC(=O)[C@H](CC(C)C)NC(=O)c1nc(-c2ccc(C(F)(F)F)cc2)oc1-c1cccc(OC)c1 [KB-2774]	25.2 µM			4.39 µM	4 to 5 µM		
COc1cccc(-c2oc(-c3ccc(C(F)(F)F)cc3)nc2C(=O)N[C@@H](C)C(N)=O)c1 [KB-2775]	3.12 µM					no detectable antiviral effect	
CC(C)(C)[C@H](NC(=O)C(F)(F)F)C(=O)N1C[C@H]2[C@@H]([C@H]1C(=O)N[C@H](C#N)C[C@@H]1CCNC1=O)C2(C)C [nirmatrelvir]							limited activity
